Source: patent publication US20100080855A1, “HEDGEHOG SIGNALING AND CANCER STEM CELLS IN HEMATOPOIETIC CELL MALIGNANCIES” (THE BOARD OF TRUSTEES OF THE LELAND STANFORD JUNIOR …, priority 2008, published 2010)

Tested on: BCR-ABL1 driven leukemia
Conditions: leukemias of mice treated with 25 mg/kg cyclopamine vs vehicle; flow cytometry lin-GFP+ c-Kit+Sca-1+

With `CC1=C2C[C@H]3[C@@H](CC=C4C[C@@H](O)CC[C@@]43C)[C@@H]2CC[C@]12O[C@@H]1C[C@H](C)CN[C@H]1[C@H]2C` [cyclopamine] the “reduction in the CML stem cell population” value was “up to a fourteen-fold reduction”.
